Test systems include A498; CCRF-CEM; DU-145; HCT-116; HCT-15; HL-60; M14; MDA-N; Malme-3M; OVCAR-3; OVCAR-4; RPMI-8226; SK-MEL-2; SK-MEL-5; T47D; UACC-62; DMS-114; M19-MEL; XF498; HOP-18.
What all share (assay): inhibition of tumour cell growth, NCI panel, 48 h

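Grown in 96-well plates, cells were treated for 48 hours with each compound at five concentrations. Insufficient inhibition: endpoint recorded as highest concentration tested. Here, GI50 denotes the concentration required for 50% inhibition of growth.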 Active and inactive are the calls of the source. No stated cut-off is given here; in the data, active = GI50 up to about 1.1 µM and inactive = higher.

As to `CC(=O)Nc1ccc2[nH]c(C(=O)N3CC(CCl)c4c3cc(N)c3ccccc43)cc2c1` (stereo unspecified), the GI50 was 0.0176 µM (active) in the assay on A498; < 0.01 µM (active) in the assay on CCRF-CEM; < 0.01 µM (active) in the assay with DU-145; 0.0137 µM (active) with HCT-116; 0.0267 µM in the assay on HCT-15; < 0.01 µM (active) in the assay with HL-60. Moreover, the GI50 with M14 is 0.0167 µM (active); with MDA-N, 0.0177 µM (active); with Malme-3M it was < 0.01 µM (active); with OVCAR-3 it was 0.0189 µM (active); in the assay with OVCAR-4, < 0.01 µM (active); with RPMI-8226, < 0.0171 µM (active). Moreover, the GI50 with SK-MEL-2 was < 0.0143 µM (active); in the assay with SK-MEL-5 it was 0.0115 µM (active); in the assay on T47D, < 0.0164 µM (active); with UACC-62, 0.0101 µM (active).
`C=CCn1c(=O)c(Br)nn(CCOCP(=O)(OCC)OCC)c1=O`: the GI50 with A498 is > 100 µM (inactive); with CCRF-CEM, > 100 µM (inactive); with DU-145, > 100 µM (inactive); in the assay on HCT-15 it was over 100 µM; in the assay on HL-60 it was > 100 µM (inactive); with M14 it was > 100 µM (inactive). Moreover, the GI50 with MDA-N is > 100 µM (inactive); in the assay with Malme-3M, > 100 µM (inactive); with OVCAR-3 it was > 100 µM (inactive); in the assay on RPMI-8226 it was > 100 µM (inactive); in the assay with SK-MEL-2, > 100 µM (inactive); in the assay with SK-MEL-5, 61.2 µM (inactive). For the same compound, in the assay on T47D, the GI50 was > 100 µM (inactive).
As for `NC(Cc1ccccc1)C(=O)N[C@H]1c2ccsc2/C(=N/O)[C@H]1O` (stereo partly specified), the GI50 is > 100 µM (inactive) with A498; > 100 µM (inactive) with CCRF-CEM; > 100 µM (inactive) in the assay with DU-145; > 100 µM (inactive) in the assay with HCT-116; over 100 µM with HCT-15; > 100 µM (inactive) with HL-60. Moreover, the GI50 in the assay with M14, in the assay with MDA-N, in the assay with Malme-3M, in the assay with OVCAR-3, with OVCAR-4 and in the assay on SK-MEL-2 was > 100 µM (inactive) throughout. Also, the GI50 in the assay on SK-MEL-5, in the assay with T47D and in the assay on UACC-62 was > 100 µM (inactive) throughout.
`NS(=O)(=O)C1CCCCC1C(=O)NNC(=O)C(=O)Nc1nnc(S)[nH]1` (stereo unspecified): the GI50 with A498 was > 100 µM (inactive); in the assay on CCRF-CEM it was > 100 µM (inactive); in the assay with DMS-114 it was > 100 µM (inactive); with HCT-116, > 100 µM (inactive); in the assay with HCT-15, over 100 µM; with HL-60, > 100 µM (inactive). For the same compound, the GI50 in the assay with M14, in the assay with M19-MEL, in the assay on OVCAR-4, in the assay with RPMI-8226, in the assay with SK-MEL-2 and with SK-MEL-5 was > 100 µM (inactive) throughout. For the same compound, the GI50 in the assay on UACC-62 and with XF498 was > 100 µM (inactive) each time.
`COc1ccc(N2CN(C)CSC2=S)cc1`: the GI50 is > 100 µM (inactive) in the assay with A498; 13.1 µM (inactive) in the assay with CCRF-CEM; > 100 µM (inactive) in the assay on DU-145; 71.3 µM (inactive) in the assay with HCT-116; 76 µM with HCT-15; 72.8 µM (inactive) in the assay with HL-60. Besides, the GI50 in the assay on M14 was 38.5 µM (inactive); in the assay on Malme-3M it was > 100 µM (inactive); in the assay with OVCAR-3, 4.73 µM (inactive); in the assay with OVCAR-4, > 100 µM (inactive); in the assay on RPMI-8226, 32.3 µM (inactive); in the assay with SK-MEL-2 it was > 100 µM (inactive). For the same compound, the GI50 in the assay with SK-MEL-5 was > 100 µM (inactive); in the assay with T47D, 54 µM (inactive); with UACC-62, > 100 µM (inactive).
In the case of `CO/N=C1/c2sccc2[C@H](NC(=O)C(F)(F)F)[C@@H]1O`, the GI50 was > 100 µM (inactive) with A498; > 100 µM (inactive) in the assay on CCRF-CEM; > 100 µM (inactive) in the assay on DU-145; > 100 µM (inactive) in the assay on HCT-116; over 100 µM with HCT-15; > 100 µM (inactive) in the assay on HL-60. The GI50 in the assay on M14, in the assay with MDA-N, in the assay with Malme-3M, with OVCAR-3, in the assay on OVCAR-4 and in the assay on SK-MEL-2 was > 100 µM (inactive) in each case. The GI50 with SK-MEL-5, with T47D and in the assay with UACC-62 was > 100 µM (inactive) in each case.
Regarding `Cc1ccc2c(=O)c3ccccc3sc2c1`, the GI50 in the assay on CCRF-CEM was > 100 µM (inactive); with HCT-116, > 100 µM (inactive); with HL-60 it was 26.9 µM (inactive); in the assay with HOP-18, 6.19 µM (inactive); with M14, > 100 µM (inactive); with M19-MEL, > 100 µM (inactive). Also, the GI50 in the assay on Malme-3M, in the assay on OVCAR-3, in the assay on OVCAR-4, in the assay with RPMI-8226, with SK-MEL-5 and in the assay with UACC-62 was > 100 µM (inactive) in each case.
`COc1ccc(-c2c3ccccc3c(-c3ccc(OCCCCCBr)cc3)c3ccccc23)cc1`: the GI50 was > 100 µM (inactive) with CCRF-CEM; > 100 µM (inactive) in the assay on DMS-114; > 100 µM (inactive) with HCT-116; over 100 µM in the assay on HCT-15; > 100 µM (inactive) in the assay with HL-60; > 100 µM (inactive) in the assay on M14. Moreover, the GI50 in the assay with M19-MEL, in the assay with Malme-3M, in the assay with OVCAR-3, in the assay with OVCAR-4, with RPMI-8226 and with SK-MEL-2 was > 100 µM (inactive) in each case. Moreover, the GI50 in the assay on UACC-62 is > 100 µM (inactive).
In the case of `Cc1ccc(S(=O)(=O)NCCCSCCSCCCN)cc1`, the GI50 was > 100 µM (inactive) in the assay with A498; > 100 µM (inactive) in the assay on CCRF-CEM; > 100 µM (inactive) in the assay on DU-145; > 100 µM (inactive) with HCT-116; over 100 µM with HCT-15; > 100 µM (inactive) in the assay with HL-60. Besides, the GI50 in the assay with M14, in the assay with MDA-N, in the assay on OVCAR-3, with OVCAR-4, with SK-MEL-5 and in the assay on T47D was > 100 µM (inactive) throughout.
For the compound `COC(=O)Cc1c(-c2c(CC(=O)OC)c3ccccc3n2C2OC(COC(C)=O)C(OC(C)=O)C(OC(C)=O)C2OC(C)=O)[nH]c2ccccc12` (stereo unspecified), the GI50 in the assay on A498 was 52.4 µM (inactive); in the assay with CCRF-CEM, > 100 µM (inactive); in the assay with DU-145, > 100 µM (inactive); in the assay with HCT-116, > 100 µM (inactive); in the assay on HCT-15, over 100 µM; in the assay on M14, > 100 µM (inactive). The GI50 with MDA-N, with Malme-3M, in the assay with OVCAR-3, with OVCAR-4, in the assay with RPMI-8226 and in the assay with SK-MEL-2 was > 100 µM (inactive) each time. The GI50 in the assay with SK-MEL-5 and with UACC-62 was > 100 µM (inactive) each time.
With `CCCOC1OC(CS(=O)(=O)O)C(OC(C)=O)C(OC(C)=O)C1OC(C)=O` (stereo unspecified), the GI50 was > 100 µM (inactive) with A498; > 100 µM (inactive) in the assay with CCRF-CEM; > 100 µM (inactive) with DU-145; > 100 µM (inactive) in the assay with HCT-116; over 100 µM in the assay on HCT-15; > 100 µM (inactive) with HL-60. Besides, the GI50 with M14, in the assay on MDA-N, in the assay on Malme-3M, in the assay with OVCAR-3, in the assay with OVCAR-4 and in the assay on RPMI-8226 was > 100 µM (inactive) each time. The GI50 in the assay on SK-MEL-2, in the assay with SK-MEL-5, in the assay on T47D and with UACC-62 was > 100 µM (inactive) throughout.
`CCCCCCc1ccc(O)cc1O` [HEXYLRESORCINOL]: the GI50 in the assay on A498 is > 100 µM (inactive); in the assay with CCRF-CEM, 32 µM (inactive); in the assay on HCT-116, 53.5 µM (inactive); with HCT-15, 59.8 µM; in the assay with HL-60, 30.8 µM (inactive); in the assay on HOP-18, 28.2 µM (inactive). Besides, the GI50 with M19-MEL was 42.8 µM (inactive); in the assay on Malme-3M it was 48 µM (inactive); in the assay with OVCAR-3 it was 36.4 µM (inactive); with OVCAR-4 it was 48.5 µM (inactive); in the assay with RPMI-8226 it was 32.1 µM (inactive); in the assay on SK-MEL-2, 26.1 µM (inactive). In addition, the results for the GI50 with SK-MEL-5, in the assay with UACC-62 and in the assay on XF498 were 31.8 µM (inactive), 34.4 µM (inactive) and > 65.3 µM (inactive), respectively.
As for `O=C1N[C@@H]2C(=C[C@H](O)[C@@H](O)[C@H]2O)c2cc3c(c(O)c21)OCO3` [NARCICLASINE], the GI50 was 0.045 µM (active) in the assay on A498; 0.045 µM (active) in the assay with CCRF-CEM; 0.045 µM (active) in the assay on HCT-116; 0.045 µM in the assay on HCT-15; 0.0646 µM (active) in the assay with HL-60; 0.0535 µM (active) in the assay on HOP-18. Moreover, the GI50 with Malme-3M was 0.045 µM (active); in the assay with OVCAR-3, 0.045 µM (active); in the assay with OVCAR-4 it was 0.142 µM (active); in the assay with RPMI-8226, 0.045 µM (active); in the assay on SK-MEL-2 it was 0.045 µM (active); in the assay with SK-MEL-5 it was 0.045 µM (active). The GI50 in the assay with UACC-62 and in the assay with XF498 was 0.045 µM (active) each time.
As for `Oc1ccc(/C=C/c2cc(O)cc(O)c2)cc1` [RESVERATROL], the GI50 with A498 was 24.3 µM (inactive); in the assay with DU-145, 12.1 µM (inactive); in the assay with HCT-15, over 100 µM; in the assay on HL-60 it was 20.4 µM (inactive); in the assay on M14, 49.8 µM (inactive); in the assay with MDA-N, 50.7 µM (inactive). In addition, the GI50 is > 100 µM (inactive) with OVCAR-3; > 100 µM (inactive) in the assay with OVCAR-4; 8.63 µM (inactive) with RPMI-8226; 86.3 µM (inactive) with SK-MEL-2; 8.65 µM (inactive) in the assay on T47D; 41.2 µM (inactive) in the assay with UACC-62.

The record behind these values is ChEMBL document CHEMBL1201862, “PubChem BioAssay data set” (2004).
